Data on twelve compounds can be found in patent publication US11440880B2, “Thalidomide analogs and methods of use” (The USA, as represented by the Secretary, Department of …, priority 2015, dated 2022).

Each structure is given as a SMILES string.

As a reminder, the minimal effective concentration is the smallest amount tested that counted as effective.

The subject of series [1] is fli1:EGFP zebrafish embryos (intersegmental vessel growth). Put plainly: fli1:EGFP zebrafish embryo angiogenesis assay. The series is classed as in vivo. Also on record: fli1:EGFP angiogenesis n (survived/tested): concentration or dose not given beside the values. The settings on record: for minimal effective concentration: Danio rerio, lowest concentration producing an effect, compounds not producing an effect shown at the highest evaluated concentration; for fli1:EGFP angiogenesis n (survived/tested): embryos alive after 24 hours of exposure. The text has this: (§1) Zebrafish embryology: The use of zebrafish embryo (Danio rerio) bioassays as a preclinical model in the classification of novel compounds has increased in recent years due to several factors including; low cost, ease of maintenance, speed of embryonic development, transparency of the embryos and genetic conservation between zebrafish and humans (Howe et al., Nature 2013; 496:498; Therapontos et al., PNAS 2009, 106:8573; Mahony et al., PNAS 2013, 110:12703; Beedie et al., Oncotarget 2016, 7(22):33237; Beedie et al., Mol. Cancer Ther. 2015, 14(10):2228). Two established zebrafish reporter lines were used—the fli1:EGFP line, where the fli1 promoter drives expression of enhanced green fluorescent protein within the developing vasculature (Lawson et al., 2002), and the Tg(mpo::EGFP) line (also known as mpo:GFP), which expresses green fluorescent protein via the neutrophil specific myeloperoxidase promoter (Renshaw et al., Blood 2006, 108:3976). The use of these zebrafish transgenic reporter lines allows for the identification of potential anti-angiogenic and anti-inflammatory compounds respectively, and both have been used previously to successfully classify the action of thalidomide analogs (Therapontos et al., 2009; Mahony et al., 2013; Beedie et al., Oncotarget 2016, 7(22):33237; Beedie et al., Mol. Cancer Ther. 2015, 14(10):2228). Zebrafish embryos were treated with analogs as previously described (Mahony et al., 2013). Briefly, fli1:EGFP embryos were collected and embryos were allowed to develop for 24 hours. Embryos were dechorionated manually and exposed to test compounds or vehicle control for a further 24 hours, imaged and analyzed for intersegmental vessel (ISV) growth. At 24 hours post fertilisation (hpf) the ISVs were ideal to study to visualize and analyze the actions of compounds on angiogenesis. At this time point ISVs were rapidly forming beneath the developing head, over the body and had yet to form in the tail (Lawson and Weinstein, Developmental Biology 2002, 248:307; Therapontos and Vargesson, Developmental Dynamics 2010, 239:2761). Additionally, these sprouts would go on to form the bilateral dorsal longitudinal anastomotic vessels. By treating before this fusion and formation occurs, the effect of each compound on the individual vessels as well as overall patterning structural integrity (Isogai et al., Development 2003, 130:5281) could be determined. Tg(mpo::EGFP) were tail fin clipped as previously detailed (Renshaw et al., 2006; Mahony et al., 2013; Beedie et al., Oncotarget 2016, 7(22):33237; Beedie et al., Mol. Cancer Ther. 2015, 14(10):2228) and incubated with test compounds or vehicle control at 72 hours post fertilization. Fish were imaged at 24 hours and the number of migratory neutrophils present at the wound site were counted. Compounds inducing an at least 50% reduction of neutrophils to the wound site were considered to have anti-inflammatory properties in this system. All larvae were assessed for viability and morphological integrity.
To determine if the thalidomide analogs had any effect on angiogenesis, fli1:EGFP embryos (Lawson and Weinstein, Developmental Biology 2002, 248:307-318) were exposed to either vehicle or a compound of interest, over a range of concentrations and over a range of time points starting at 24 hpf. Images were obtained at three time points over 24 hours after exposure to the compounds. The best concentration and time point were selected. CPS49, a compound that is chemically and structurally similar to thalidomide breakdown products, and is tetrafluorinated (which adds stability and bioactivity to the compound) and that causes severe limb defects in chicken embryos, was used as a positive control. The embryos were imaged at 48 hpf (FIGS. 3A3L) and analyzed for both vessel formation and the extent of growth of the vasculature. […]

In series [2] the test system is mpo:GFP zebrafish embryos (neutrophil migration to the wound site). Nature of the series: mpo:GFP zebrafish fin-clip neutrophil migration (inflammation) assay. The series is classed as in vivo. Further details: mpo:GFP inflammation n (survived/tested): concentration or dose not given beside the values. The settings on record: for minimal effective concentration: Danio rerio, Neutrophil, lowest concentration producing an effect, compounds not producing an effect shown at the highest evaluated concentration; for mpo:GFP inflammation n (survived/tested): embryos survived/tested at the concentration given.
Text: as §1
To assess the immunomodulatory effects of the thalidomide analogs, the mpo:gfp transgenic zebrafish line (Renshaw et al., Blood 2006, 108:3976-3978) was utilized because it is an accepted model of inflammation, and can be used to test the effect of anti-inflammatory agents. These embryos express GFP-tagged myeloperoxidase, where green fluorescence marks the neutrophil cells involved in the inflammatory response process, for example following injury, from 72 hours post fertilization (Renshaw et al., 2006; Mahony et al., 2013; Beedie et al., Oncotarget 2016, 7(22):33237). At 72 hpf the dorsal third of the tail fin was removed and the embryos were immersed in the desired compound or vehicle (FIGS. 5A-5C). The embryos were examined for the effect on the inflammatory response quantified as an induction and migration of neutrophils to the wound site 24 hours later.

Series [3] deals with TNF-α protein. Nature of the series: TNF-α protein level (ELISA) in LPS-challenged RAW 264.7 cells. The series is classed as cell-based, mouse. Conditions: LPS 30 or 60 ng/mL, 24 h. Further details: key: NS=not significant; a “+” sign=anti-inflammatory or increased cell numbers; a “−” sign=cell toxicity or pro-inflammatory. The procedure, abridged:
(§2)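 RAW 264.7 cells pretreated 1 h with compound in DMSO vehicle, then challenged with LPS (30 or 60 ng/mL) for 24 h at 37° C. Conditioned-media nitrite by Griess (520 nm, sodium nitrite standard curve, 1.5 μM cutoff) in μM; mouse TNF-α by ELISA as pg/ml or % change from control.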
In general terms: An ELISA detects its analyte on a solid surface through an enzyme-linked reagent.

Series [4] concerns nitrite levels in the culture media. Nature of the series: Nitrite level (Griess Reagent System) in LPS-challenged RAW 264.7 cells. Format: cell-based, mouse. Also on record: key: NS=not significant; a “+” sign=anti-inflammatory or increased cell numbers; a “−” sign=cell toxicity or pro-inflammatory. Conditions: LPS 30 or 60 ng/mL, 24 h. In a few lines: as §2
For series [5], the system named is RAW 264.7 cells. Nature of the series: Cell viability (CellTiter 96 AQueous One) of LPS-challenged RAW 264.7 cells. The series is classed as cell-based, mouse. Also on record: key: NS=not significant; a “+” sign=anti-inflammatory or increased cell numbers; a “−” sign=cell toxicity or pro-inflammatory. The procedure, abridged:
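RAW 264.7 murine macrophages pretreated 1 h with compound or DMSO vehicle, then challenged with LPS (serotype 055:B5) at 30 or 60 ng/mL final for 24 h. After media replacement, viability measured by tetrazolium (MTS) conversion, absorbance at 490 nm, reported as O.D.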

As for `O=C1c2cccc([N+](=O)[O-])c2C(=O)N1C1CCC(=S)NC1=S` (stereo not shown) [Compound 9, 2-(2,6-Dithioxo-3-piperidinyl)-4-nitro-1H-isoindole-1,3(2H)-dione], the minimal effective concentration in series [1] and in series [2] was 10 µg/mL throughout. Further, in series [1], the “fli1:EGFP angiogenesis n (survived/tested)” value is listed as 14/21. In series [2], the “mpo:GFP inflammation n (survived/tested)” value was 12/12. Further, the TNF-α entry in series [3] (30 μM), in series [3] (60 μM) and in series [3] (100 μM) was “NS” in each case. Also, the Nitrite result in series [4] (30 μM), in series [4] (60 μM) and in series [4] (100 μM) was “+” in each case. Moreover, the Viability result in series [5] (30 μM) was “NS”; in series [5] (60 μM), “NS”; in series [5] (100 μM) it was “+”.
For `Nc1cccc2c1CN(C1CCC(=S)NC1=O)C2=S` (stereo not shown) [Compound 32], the minimal effective concentration in series [1] is 100 µg/mL; in series [2], 10 µg/mL. In addition, the “fli1:EGFP angiogenesis n (survived/tested)” value in series [1] is given as 21/25. The “mpo:GFP inflammation n (survived/tested)” value in series [2] is on record as 6/15. Further, the TNF-α result in series [3] (3 μM), in series [3] (10 μM) and in series [3] (30 μM) was “+” in each case. The Viability entry in series [5] (3 μM), in series [5] (10 μM) and in series [5] (30 μM) was “NS” throughout.
For `O=C1CCC(N2Cc3ccc([N+](=O)[O-])cc3C2=O)C(=O)N1` (stereo not shown) [Compound 33], in series [1], the minimal effective concentration amounted to 100 µg/mL and the “fli1:EGFP angiogenesis n (survived/tested)” value is reported as 15/21. Also, in series [2], the minimal effective concentration came out at 10 µg/mL and the “mpo:GFP inflammation n (survived/tested)” value is listed as 4/15.
In the case of `Nc1ccc2c(c1)C(=O)N(C1CCC(=O)NC1=O)C2` (stereo not shown) [Compound 34], in series [1], the minimal effective concentration came out at 100 µg/mL and the “fli1:EGFP angiogenesis n (survived/tested)” value is listed as 13/20. In addition, in series [2], the minimal effective concentration turned out to be 100 µg/mL and the “mpo:GFP inflammation n (survived/tested)” value is recorded as 7/9.
Consider `CC(C)Nc1ccc2c(c1)C(=O)N(C1CC=CNC1=O)C2` (stereo not shown) [Compound 46, 6-Isopropylamino-2-(3,4-dihydro-2-pyridone-3-yl)phthalimidine], for which, in series [1], the minimal effective concentration came out at 10 µg/mL and the “fli1:EGFP angiogenesis n (survived/tested)” value is reported as 14/30. Also, in series [2], the minimal effective concentration was 10 µg/mL and the “mpo:GFP inflammation n (survived/tested)” value was 24/50.
Turning to `O=C1CCC(N2Cc3ccccc3C2=O)C(=O)N1CN1C(=S)c2ccccc2C1=S` (stereo not shown) [Compound 51], the figures for the minimal effective concentration in series [1] and in series [2] were 200 µg/mL and 1 µg/mL, respectively. Moreover, in series [1], the “fli1:EGFP angiogenesis n (survived/tested)” value is 7/25. For the same compound, the “concentration at which anti-angiogenic activity was shown” value in series [1] (exposure from 24 hpf, imaged at 48 hpf) was 200 µg/mL. Further, in series [2], the “mpo:GFP inflammation n (survived/tested)” value was 4/11. In addition, the TNF-α entry in series [3] (1 μM), in series [3] (10 μM) and in series [3] (30 μM) was “+” each time. For the same compound, the Viability result in series [5] (1 μM) is “NS”; in series [5] (10 μM), “NS”; in series [5] (30 μM), “−”.
Turning to `O=C1CCC(N2Cc3ccccc3C2=O)C(=O)N1CSC(=S)NC1CCCCC1` (stereo not shown) [Compound 52], the minimal effective concentration in series [1] and in series [2] was 100 µg/mL throughout. Moreover, the “fli1:EGFP angiogenesis n (survived/tested)” value in series [1] is reported as 6/7. Also, the “mpo:GFP inflammation n (survived/tested)” value in series [2] is on record as 7/21. Also, the TNF-α result in series [3] (1 μM), in series [3] (10 μM) and in series [3] (30 μM) was “+” throughout. Further, the Viability entry in series [5] (1 μM), in series [5] (10 μM) and in series [5] (30 μM) was “NS” throughout.
On to `O=C1CCC(N2Cc3ccccc3C2=O)C(=O)N1CSC(=S)N1CCCCC1` (stereo not shown) [Compound 53], for which the minimal effective concentration in series [1] and in series [2] was 10 µg/mL each time. Besides, the “fli1:EGFP angiogenesis n (survived/tested)” value in series [1] was 9/14. In addition, the “mpo:GFP inflammation n (survived/tested)” value in series [2] is reported as 13/19. For the same compound, the TNF-α entry is listed as “+” in series [3] (1 μM), “+” in series [3] (10 μM) and “NS” in series [3] (30 μM). Also, the Viability result in series [5] (1 μM) was “−”; in series [5] (10 μM), “NS”; in series [5] (30 μM) it was “+”.
Turning to `N=C1N/C(=N\C2CCC(=O)NC2=O)c2ccccc21` (stereo not shown) [Compound 55], in series [1], the minimal effective concentration is 100 µg/mL and the “fli1:EGFP angiogenesis n (survived/tested)” value is on record as 6/10. In series [2], the minimal effective concentration amounted to 200 µg/mL and the “mpo:GFP inflammation n (survived/tested)” value is reported as 6/11.
For `N=C1c2ccccc2C(=O)N1C1CCC(=O)NC1=O` (stereo not shown) [Compound 56] the same measures were 10 µg/mL, 9/19, 10 µg/mL and 7/8.
With `O=C1CCC(N2C(=O)c3cccnc3C2=O)C(=O)N1` (stereo not shown) [Compound 57], the values for the minimal effective concentration in series [1] and in series [2] were 8.5 µg/mL and 17 µg/mL, respectively. The “fli1:EGFP angiogenesis n (survived/tested)” value in series [1] is reported as 8/12. For the same compound, the “mpo:GFP inflammation n (survived/tested)” value in series [2] is 8/15. For the same compound, the TNF-α entry in series [3] (1 μM), in series [3] (10 μM) and in series [3] (30 μM) was “NS” throughout. Besides, the results for the Nitrite entry in series [4] (1 μM), in series [4] (10 μM) and in series [4] (30 μM) were “NS”, “+” and “+”, respectively. For the same compound, the Viability entry in series [5] (1 μM), in series [5] (10 μM) and in series [5] (30 μM) was “NS” in each case.
As for `O=C1c2cccc([N+](=O)[O-])c2C(=O)N1c1nc2ccc(C(F)(F)F)cc2s1` [Compound 60], in series [1], the minimal effective concentration is 10 µg/mL and the “fli1:EGFP angiogenesis n (survived/tested)” value was 3/10. In series [2], the minimal effective concentration was 1 µg/mL and the “mpo:GFP inflammation n (survived/tested)” value is 5/15.
